Measured values reported in paper PMC11345330, “Structural, Biochemical, and Phylogenetic Analysis of Bacterial and Fungal Carbohydrate Esterase Family 15 Glucuronoyl Esterases in the Rumen” (The Protein Journal, 2024).

Biological target: T1, FsCE15 (Fibrobacter succinogenes, UniProt C9RKY6)
T1 construct: gene FSU_2898; codon-optimised synthetic gene, His6 tag (C-terminal for crystals)
Assay: continuous coupled uronic acid assay (Megazyme K-Uronic)
Type: biochemical
Details: pH 7.0, 3-component buffer, 2 mM substrate

T1 sequence (C9RKY6 entry or part of it): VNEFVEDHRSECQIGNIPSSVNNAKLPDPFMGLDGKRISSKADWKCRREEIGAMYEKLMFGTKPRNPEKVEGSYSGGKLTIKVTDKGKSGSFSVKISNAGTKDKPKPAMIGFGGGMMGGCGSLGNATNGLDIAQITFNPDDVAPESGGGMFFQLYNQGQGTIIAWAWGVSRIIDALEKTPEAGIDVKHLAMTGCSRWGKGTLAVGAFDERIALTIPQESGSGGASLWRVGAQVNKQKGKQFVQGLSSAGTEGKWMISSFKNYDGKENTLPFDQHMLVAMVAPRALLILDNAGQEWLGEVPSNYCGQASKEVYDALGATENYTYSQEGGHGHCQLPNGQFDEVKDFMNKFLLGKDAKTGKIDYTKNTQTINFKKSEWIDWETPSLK

With C=CCOC(=O)[C@H]1OC(O)[C@H](O)[C@@H](O)[C@@H]1O (stereo partly drawn) [Allyl D-glucuronate] the “continuous coupled uronic acid assay (Megazyme K-Uronic)” value was “All of the enzymes cleaved AllylGlcA”.
